For orientation: IC50 means the midpoint of a concentration-inhibition curve. One may read the pIC50 as −log10 of the IC50, conventionally taken in molar units.

We go through 38 compounds from patent US10377753B2, “Substituted 4-azaindoles and their use as GluN2B receptor modulators” (Janssen Pharmaceutica NV, priority 2015, dated 2019).

SMILES strings stand for the structures. Counter-ions that a name gives are not always drawn.

For this assay, the target named is cloned human NR1/NR2B ion channels (Homo sapiens (Human), UniProt Q05586+Q13224). The assay is described as follows: HNR2BC: effects of test articles on cloned human NR1/NR2B ion channels expressed in mammalian cells (FLIPR calcium flux). It counts as cell-based. Conditions: Table 5. The procedure, abridged:
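Compounds were added to dye-loaded cells for 5 min with fluorescence monitored for agonism, followed by co-agonists (glutamate ~EC80, glycine 10 μM saturating) for 5 min. Cells stably expressed inducible human NR1/NR2B, and the buffer was pH 7.4. The FLIPR Ca2+ flux signal was normalized against control wells.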

Where [1] appears, read: cloned human NR1/NR2B ion channels.

Sequence of cloned human NR1/NR2B ion channels (Q13224 27-1484, other chains not shown): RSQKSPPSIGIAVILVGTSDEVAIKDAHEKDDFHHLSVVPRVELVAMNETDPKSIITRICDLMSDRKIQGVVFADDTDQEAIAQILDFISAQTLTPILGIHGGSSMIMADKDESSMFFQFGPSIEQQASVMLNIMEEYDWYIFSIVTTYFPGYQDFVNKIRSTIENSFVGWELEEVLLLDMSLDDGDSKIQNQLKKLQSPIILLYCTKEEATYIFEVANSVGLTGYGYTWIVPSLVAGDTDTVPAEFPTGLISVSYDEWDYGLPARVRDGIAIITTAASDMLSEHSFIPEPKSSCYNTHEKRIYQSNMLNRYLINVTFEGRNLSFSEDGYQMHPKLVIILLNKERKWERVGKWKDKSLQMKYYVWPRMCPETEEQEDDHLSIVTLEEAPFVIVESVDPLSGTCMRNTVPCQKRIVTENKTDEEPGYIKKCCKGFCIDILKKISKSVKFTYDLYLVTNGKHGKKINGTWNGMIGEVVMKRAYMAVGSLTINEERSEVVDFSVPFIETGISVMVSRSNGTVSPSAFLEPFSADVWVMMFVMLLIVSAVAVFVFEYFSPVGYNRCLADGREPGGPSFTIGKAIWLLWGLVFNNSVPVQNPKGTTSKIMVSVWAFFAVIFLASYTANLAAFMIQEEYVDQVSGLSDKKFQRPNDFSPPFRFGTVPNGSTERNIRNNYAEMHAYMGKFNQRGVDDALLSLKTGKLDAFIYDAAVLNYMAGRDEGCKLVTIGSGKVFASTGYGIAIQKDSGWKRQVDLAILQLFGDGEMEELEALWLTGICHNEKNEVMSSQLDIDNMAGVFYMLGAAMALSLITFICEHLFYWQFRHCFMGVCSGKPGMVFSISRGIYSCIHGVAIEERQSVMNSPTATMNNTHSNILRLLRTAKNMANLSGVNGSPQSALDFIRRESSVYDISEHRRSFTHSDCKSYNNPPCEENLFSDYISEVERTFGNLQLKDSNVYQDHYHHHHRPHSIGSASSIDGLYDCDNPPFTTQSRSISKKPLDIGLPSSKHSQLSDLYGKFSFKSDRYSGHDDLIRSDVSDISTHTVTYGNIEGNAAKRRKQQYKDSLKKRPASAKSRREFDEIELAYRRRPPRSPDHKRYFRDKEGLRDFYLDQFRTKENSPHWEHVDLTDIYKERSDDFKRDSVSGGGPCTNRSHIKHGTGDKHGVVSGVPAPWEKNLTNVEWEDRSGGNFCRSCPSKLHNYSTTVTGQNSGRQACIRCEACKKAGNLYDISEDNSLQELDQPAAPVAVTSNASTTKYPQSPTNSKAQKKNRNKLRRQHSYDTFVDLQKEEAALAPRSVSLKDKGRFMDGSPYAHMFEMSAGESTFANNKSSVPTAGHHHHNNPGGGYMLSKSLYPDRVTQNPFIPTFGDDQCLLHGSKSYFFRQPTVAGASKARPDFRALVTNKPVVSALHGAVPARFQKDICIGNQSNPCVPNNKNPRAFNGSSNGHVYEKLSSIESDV

For the compound `O=C(Cn1cc(Cl)c2ncc(-c3cccc(C(F)(F)F)c3F)cc21)N1CCC1` [Example 524, 1-(Azetidin-1-yl)-2-[3-chloro-6-[2-fluoro-3-(trifluoromethyl)phenyl]pyrrolo[3,2-b]pyridin-1-yl]ethanone], the IC50 under setting [1] was 79.4 nM. `Cc1cccc(-c2cnc3ccn(CC(=O)NC4CC4)c3c2)c1C` [Example 154, N-Cyclopropyl-2-[6-(2,3-dimethylphenyl)pyrrolo[3,2-b]pyridin-1-yl]acetamide trifluoroacetate salt]: where the note is “cloned human NR1/NR2B”, the IC50 is 398 nM. Still for that read-out and setting: with `COC1CN(C(=O)Cn2ccc3ncc(-c4ccc(F)cc4)cc32)C1` [Example 207, 2-[6-(4-Fluorophenyl)pyrrolo[3,2-b]pyridin-1-yl]-1-(3-methoxyazetidin-1-yl)ethanone] the figure was 316 nM; with `Cc1cccc(-c2cnc3cc(C)n(CC(=O)NC4CC4)c3c2)c1` [Example 51, N-Cyclopropyl-2-[2-methyl-6-(m-tolyl)pyrrolo[3,2-b]pyridin-1-yl]acetamide], 63.1 nM. As to `CN(C)C(=O)Cn1cc(Cl)c2ncc(-c3cccc(C(F)(F)F)c3F)cc21` [Example 517, 2-[3-Chloro-6-[2-fluoro-3-(trifluoromethyl)phenyl]pyrrolo[3,2-b]pyridin-1-yl]-N,N-dimethyl-acetamide], under setting [1], the IC50 is 100 nM. With `O=C(Cn1cc(F)c2ncc(-c3ccc(F)c(C(F)(F)F)c3)cc21)N1CC(F)C1` [Example 508, 1-(3-Fluoroazetidin-1-yl)-2-[3-fluoro-6-[4-fluoro-3-(trifluoromethyl)phenyl]pyrrolo[3,2-b]pyridin-1-yl]ethanone], the IC50 under setting [1] was 126 nM.

Regarding `CC(C)C(=O)Cn1cc(F)c2ncc(-c3cc(F)c(F)c(F)c3)cc21` [Example 344, 1-[3-Fluoro-6-(3,4,5-trifluorophenyl)pyrrolo[3,2-b]pyridin-1-yl]-3-methyl-butan-2-one], the IC50 (cloned human NR1/NR2B) is 50.1 nM.

On to `CN(C)C(=O)Cn1cc(F)c2ncc(-c3ccccc3)cc21` [Example 495, 2-(3-Fluoro-6-phenyl-pyrrolo[3,2-b]pyridin-1-yl)-N,N-dimethyl-acetamide], for which, under setting [1], the IC50 is 12.6 nM.

As to `CN(C)C(=O)Cn1ccc2ncc(-c3ccccc3F)cc21` [Example 431, 2-[6-(2-Fluorophenyl)pyrrolo[3,2-b]pyridin-1-yl]-N,N-dimethyl-acetamide], the IC50 under setting [1] is 251 nM. As for `CCc1cccc(-c2cnc3c(F)cn(CC(=O)C(C)C)c3c2)c1` [Example 325, 1-[6-(3-Ethylphenyl)-3-fluoro-pyrrolo[3,2-b]pyridin-1-yl]-3-methyl-butan-2-one], for the setting “cloned human NR1/NR2B”, the IC50 was 200 nM.

Consider `CN(C)C(=O)Cn1cc(Cl)c2ncc(-c3cccc(C(F)F)c3)cc21` [Example 150, 2-[3-Chloro-6-[3-(difluoromethyl)phenyl]pyrrolo[3,2-b]pyridin-1-yl]-N,N-dimethyl-acetamide], for which the negative logarithm of the IC50 (pIC50) (cloned human NR1/NR2B) was 7.3.

With `Cc1cn(CC(=O)N(C)C)c2cc(-c3ccc(F)c(F)c3F)cnc12` [Example 583, N,N-Dimethyl-2-[3-methyl-6-(2,3,4-trifluorophenyl)pyrrolo[3,2-b]pyridin-1-yl]acetamide], the IC50 under setting [1] is 126 nM.

`N#Cc1ccc(-c2cnc3ccn(CC(=O)N4CCC4)c3c2)cn1` [Example 113, 5-[1-[2-(Azetidin-1-yl)-2-oxo-ethyl]pyrrolo[3,2-b]pyridin-6-yl]pyridine-2-carbonitrile]: where the note is “cloned human NR1/NR2B”, the IC50 is 5010 nM.

Take `Cc1cc(-c2cnc3c(C)cn(CC(=O)N(C)C)c3c2)ccc1F` [Example 566, 2-[6-(4-Fluoro-3-methyl-phenyl)-3-methyl-pyrrolo[3,2-b]pyridin-1-yl]-N,N-dimethyl-acetamide]: the IC50 under setting [1] was 50.1 nM. Turning to `O=C(Cn1cc(F)c2ncc(-c3ccc(F)c(Cl)c3)cc21)N1CC(F)C1` [Example 608, 2-[6-(3-Chloro-4-fluoro-phenyl)-3-fluoro-pyrrolo[3,2-b]pyridin-1-yl]-1-(3-fluoroazetidin-1-yl)ethanone], under setting [1], the IC50 is 20 nM. On to `O=C(Cn1cc(Cl)c2ncc(-c3cccc(Cl)c3F)cc21)N1CC(F)C1` [Example 541, 2-[3-Chloro-6-(3-chloro-2-fluoro-phenyl)pyrrolo[3,2-b]pyridin-1-yl]-1-(3-fluoroazetidin-1-yl)ethanone], for which the IC50 under setting [1] is 39.8 nM. `O=C(Cn1ccc2ncc(-c3cc(F)ccc3F)cc21)N1CCC1` [Example 135, 1-(Azetidin-1-yl)-2-[6-(2,5-difluorophenyl)pyrrolo[3,2-b]pyridin-1-yl]ethanone]: for the setting “cloned human NR1/NR2B”, the half-maximal inhibitory concentration (IC50) is 39.8 nM.

Regarding `Cc1cc(-c2cnc3ccn(CC(=O)C4CCC4)c3c2)ccc1F` [Example 242, 1-Cyclobutyl-2-[6-(4-fluoro-3-methyl-phenyl)pyrrolo[3,2-b]pyridin-1-yl]ethanone], where the note is “cloned human NR1/NR2B”, the IC50 is 794 nM. The same measure, in the same setting: with `Cc1cc(-c2cnc3c(Br)cn(CC(=O)N4CCC4)c3c2)ccc1F` [Example 68, 1-(Azetidin-1-yl)-2-[3-bromo-6-(4-fluoro-3-methyl-phenyl)pyrrolo[3,2-b]pyridin-1-yl]ethanone] the figure was 39.8 nM; with `O=C(Cn1ccc2ncc(-c3ccccc3F)cc21)NC1CC1` [Example 75, N-Cyclopropyl-2-[6-(2-fluorophenyl)pyrrolo[3,2-b]pyridin-1-yl]acetamide], 50.1 nM. On to `O=C(Cn1cc(Cl)c2ncc(-c3cccc(C(F)F)c3)cc21)N1CC(F)C1` [Example 546, 2-[3-Chloro-6-[3-(difluoromethyl)phenyl]pyrrolo[3,2-b]pyridin-1-yl]-1-(3-fluoroazetidin-1-yl)ethanone], for which the IC50 under setting [1] was 39.8 nM.

On to `Cc1cc(-c2cnc3c(Cl)cn(CC(=O)N(C)C)c3c2)sc1Cl` [Example 602, 2-[3-Chloro-6-(5-chloro-4-methyl-2-thienyl)pyrrolo[3,2-b]pyridin-1-yl]-N,N-dimethyl-acetamide], for which the IC50 under setting [1] is 10 nM. As to `Cc1cc(-c2cnc3ccn(CC(=O)N4CC5(CC5)C4)c3c2)ccc1F` [Example 208, 1-(5-Azaspiro[2.3]hexan-5-yl)-2-[6-(4-fluoro-3-methyl-phenyl)pyrrolo[3,2-b]pyridin-1-yl]ethanone trifluoroacetate salt], for the setting “cloned human NR1/NR2B”, the IC50 was 316 nM. Same read-out and setting: with `O=C(Cn1cc(F)c2ncc(-c3cc(F)c(F)c(F)c3)cc21)C1CC1` [Example 320, 1-Cyclopropyl-2-[3-fluoro-6-(3,4,5-trifluorophenyl)pyrrolo[3,2-b]pyridin-1-yl]ethanone] the figure was 31.6 nM; with `Cc1csc(-c2cnc3ccn(CC(=O)N4CCOCC4)c3c2)c1` [Example 132, 2-[6-(4-Methyl-2-thienyl)pyrrolo[3,2-b]pyridin-1-yl]-1-morpholino-ethanone], 126 nM; with `O=C(Cn1ccc2ncc(-c3ccccc3F)cc21)N1CCCC1` [Example 79, 2-[6-(2-Fluorophenyl)pyrrolo[3,2-b]pyridin-1-yl]-1-pyrrolidin-1-yl-ethanone], 79.4 nM. Still for that read-out and setting: with `Cc1cc(-c2cnc3ccn(CC(=O)O)c3c2)ccc1F` [Example 70, 2-[6-(4-Fluoro-3-methyl-phenyl)pyrrolo[3,2-b]pyridin-1-yl]acetic acid] the figure was 50.1 nM. `Cc1cccc(-c2cnc3cc(C)n(CC(=O)N4CCCC4)c3c2)c1` [Example 44, 2-[2-Methyl-6-(m-tolyl)pyrrolo[3,2-b]pyridin-1-yl]-1-pyrrolidin-1-yl-ethanone]: the IC50 (cloned human NR1/NR2B) is 200 nM. Consider `Cc1cccc(-c2cnc3c(F)cn(CC(=O)C(C)C)c3c2)c1` [Example 329, 1-[3-Fluoro-6-(m-tolyl)pyrrolo[3,2-b]pyridin-1-yl]-3-methyl-butan-2-one], for which the IC50 (cloned human NR1/NR2B) was 501 nM. For `O=C(Cn1cc(Cl)c2ncc(-c3cccc(C(F)(F)F)n3)cc21)N1CCC1` [Example 245, 1-(Azetidin-1-yl)-2-[3-chloro-6-[6-(trifluoromethyl)-2-pyridyl]pyrrolo[3,2-b]pyridin-1-yl]ethanone], the IC50 (cloned human NR1/NR2B) was 398 nM. Consider `Cc1ccc(-c2cnc3c(C)cn(CC(=O)N4CC(F)C4)c3c2)s1` [Example 634, 1-(3-Fluoroazetidin-1-yl)-2-[3-methyl-6-(5-methyl-2-thienyl)pyrrolo[3,2-b]pyridin-1-yl]ethanone], for which the IC50 under setting [1] is 631 nM.

Regarding `O=C(Cn1ccc2ncc(-c3cccc(F)c3)cc21)N1CC(F)(F)C1` [Example 256, 1-(3,3-Difluoroazetidin-1-yl)-2-[6-(3-fluorophenyl)pyrrolo[3,2-b]pyridin-1-yl]ethanone trifluoroacetate salt], the IC50 (cloned human NR1/NR2B) is 79.4 nM. In the case of `O=C(Cn1ccc2ncc(-c3ccc(F)c(C(F)(F)F)c3)cc21)N1CC(F)(F)C1` [Example 106, 1-(3,3-Difluoroazetidin-1-yl)-2-[6-[4-fluoro-3-(trifluoromethyl)phenyl]pyrrolo[3,2-b]pyridin-1-yl]ethanone], the IC50 (cloned human NR1/NR2B) is 316 nM. `O=C(Cn1ccc2ncc(-c3cccc(C(F)(F)F)c3F)cc21)N1CC(F)(F)C1` [Example 255, 1-(3,3-Difluoroazetidin-1-yl)-2-[6-[2-fluoro-3-(trifluoromethyl)phenyl]pyrrolo[3,2-b]pyridin-1-yl]ethanone trifluoroacetate salt]: the IC50 (cloned human NR1/NR2B) was 3980 nM. Take `Cc1cn(CC(=O)N2CCCC2)c2cc(-c3ccc(F)c(F)c3)cnc12` [Example 619, 2-[6-(3,4-Difluorophenyl)-3-methyl-pyrrolo[3,2-b]pyridin-1-yl]-1-pyrrolidin-1-yl-ethanone]: the IC50 under setting [1] was 39.8 nM. Regarding `O=C(Cn1ccc2ncc(-c3ccc(F)cc3)cc21)C1CC1` [Example 222, 1-Cyclopropyl-2-[6-(4-fluorophenyl)pyrrolo[3,2-b]pyridin-1-yl]ethanone], for the setting “cloned human NR1/NR2B”, the IC50 was 79.4 nM. `O=C(Cn1ccc2ncc(-c3ccc(F)cc3)cc21)N1CC(CO)C1` [Example 206, 2-[6-(4-Fluorophenyl)pyrrolo[3,2-b]pyridin-1-yl]-1-[3-(hydroxymethyl)azetidin-1-yl]ethanone]: under “cloned human NR1/NR2B”, the IC50 is 316 nM. On to `CC(C)C(=O)Cn1cc(F)c2ncc(-c3cccc(F)c3)cc21` [Example 327, 1-[3-Fluoro-6-(3-fluorophenyl)pyrrolo[3,2-b]pyridin-1-yl]-3-methyl-butan-2-one], for which the IC50 (cloned human NR1/NR2B) was 63.1 nM.
